Data as given in patent US9187524B2, “Broad spectrum antibiotic arylomycin analogs” (The Scripps Research Institute, priority 2010, dated 2015).

Assays:
[1] = test system: S. epidermidis PAS9002 (SPase S31P); assay: microbe, parasite or virus in culture; format: cell-based
S. epidermidis = assay: Selection of arylomycin resistant S. epidermidis; format: cell-based; conditions: growth in the presence of 2 μg/ml (8×MIC)

CCCCCCCCCCCCCCCC(=O)N(C)[C@H](CO)C(=O)N[C@H](C)C(=O)NCC(=O)N(C)[C@@H]1C(=O)N[C@@H](C)C(=O)N[C@H](C(=O)O)Cc2ccc(O)c(c2)-c2cc1ccc2O [Arylomycin C16]
MIC ([1]; Staphylococcus epidermidis, read-out: MIC, S. epidermidis PAS9002): > 128 µg/mL
fold elevated MIC compared to the wild type strain, Ser to Pro at position 31 ([1]; remainder of selected S. epidermidis mutants): greater than 256 fold
frequency of resistant mutants (S. epidermidis): 4 per 109 viable cells
